IC50 data for three compounds are collected here from patent US20130072495A1, “FUSED BICYCLIC KINASE INHIBITORS” (OSI Pharmaceuticals, LLC, priority 2010, published 2013).

In assay [1] the test system is MKN45 cells. In words: MKN45 cell proliferation assay (CellTiter-Glo). The settings on record: Homo sapiens, MKN-45, 72 h; MKN45 cell line, 3 days incubation, at least duplicate experiments; read-out: Prolif. IC50. Type of assay: cell-based. The procedure:
The effect of inhibitors on the proliferation of MKN45 cells was determined using the following protocol. MKN45 cells were plated in Corning 3917 96-well white tissue culture treated plates in growth medium (RPMI, 10% FCS) at a density of 5000 cells/well in a total volume of 135 μL and incubated at 37° C., 5% CO2, 95% humidity overnight. The following day, one-tenth volume of a 10× concentration of compounds was added to the wells in an 8-point dilution series. The dilution series was composed of an initial 1:5 dilution of a 10 mM stock of compound in DMSO, followed by serial 1:4 dilutions in DMSO, then a 1:20 dilution in growth medium prior to the 1:10 dilution into the cell plate. Final DMSO concentration on the cells was 0.1%, there were control wells treated with both 0.1% DMSO and no DMSO. The typical dilution range is 10 μM to 0.6 nM. Once the compound was added to the cells, plates were incubated for 3 days at 37° C., 5% CO2 at 95% humidity. On the third day, after allowing all cells and reagents to come to room temperature, 25 μL of CellTiter-Glo reagent (Promega # G7573) was added to the wells. Plates were shaken on a platform for 10 minutes prior to reading luminescence for 0.1 seconds. The signal of the control wells was taken as 100% growth and growth inhibition was expressed as percent of control. IC50 values were determined from the percent of control data using a standard four-parameter model.
The IC50 values of exemplary compounds of the present invention determined in a cell proliferation assay using the MKN45 cell line according to the procedures described herein in at least duplicate experiments are abbreviated as follows and are shown in Table 1: A, IC50≦0.1 μM; B, 0.1 μM<IC50≦0.5 μM; C, 0.5 μM<IC50≦2 μM; D, IC50>2 μM; ND, not determined. The Example # of Table 1 corresponds to the compound example number as illustrated in the Experimental section above.
Treatment of this cell line with a selective MET inhibitor led to induction of apoptosis and inhibition of proliferation, whereas non-MET-amplified cell lines were not affected. Smolen et al., Proc. Natl. Acad. Sci. USA, 103(7):2316-2321 (2006). This cell line is thus “driven” by MET, and antiproliferative effects correlate very well with the inhibition of MET phosphorylation so that the cell proliferation IC50 values can be used as surrogate for the MET cell mechanistic IC50 values. Under the assay conditions described herein, the IC50 values correlate nearly 1:1.
(In ATP-based viability assays light output follows the ATP content of the culture.)

In assay [2] the target is T1, MET (Homo sapiens, UniProt P08581).
T1 construct: endogenous in cells; host or cells: MKN45
T1 sequence (P08581 25-1390): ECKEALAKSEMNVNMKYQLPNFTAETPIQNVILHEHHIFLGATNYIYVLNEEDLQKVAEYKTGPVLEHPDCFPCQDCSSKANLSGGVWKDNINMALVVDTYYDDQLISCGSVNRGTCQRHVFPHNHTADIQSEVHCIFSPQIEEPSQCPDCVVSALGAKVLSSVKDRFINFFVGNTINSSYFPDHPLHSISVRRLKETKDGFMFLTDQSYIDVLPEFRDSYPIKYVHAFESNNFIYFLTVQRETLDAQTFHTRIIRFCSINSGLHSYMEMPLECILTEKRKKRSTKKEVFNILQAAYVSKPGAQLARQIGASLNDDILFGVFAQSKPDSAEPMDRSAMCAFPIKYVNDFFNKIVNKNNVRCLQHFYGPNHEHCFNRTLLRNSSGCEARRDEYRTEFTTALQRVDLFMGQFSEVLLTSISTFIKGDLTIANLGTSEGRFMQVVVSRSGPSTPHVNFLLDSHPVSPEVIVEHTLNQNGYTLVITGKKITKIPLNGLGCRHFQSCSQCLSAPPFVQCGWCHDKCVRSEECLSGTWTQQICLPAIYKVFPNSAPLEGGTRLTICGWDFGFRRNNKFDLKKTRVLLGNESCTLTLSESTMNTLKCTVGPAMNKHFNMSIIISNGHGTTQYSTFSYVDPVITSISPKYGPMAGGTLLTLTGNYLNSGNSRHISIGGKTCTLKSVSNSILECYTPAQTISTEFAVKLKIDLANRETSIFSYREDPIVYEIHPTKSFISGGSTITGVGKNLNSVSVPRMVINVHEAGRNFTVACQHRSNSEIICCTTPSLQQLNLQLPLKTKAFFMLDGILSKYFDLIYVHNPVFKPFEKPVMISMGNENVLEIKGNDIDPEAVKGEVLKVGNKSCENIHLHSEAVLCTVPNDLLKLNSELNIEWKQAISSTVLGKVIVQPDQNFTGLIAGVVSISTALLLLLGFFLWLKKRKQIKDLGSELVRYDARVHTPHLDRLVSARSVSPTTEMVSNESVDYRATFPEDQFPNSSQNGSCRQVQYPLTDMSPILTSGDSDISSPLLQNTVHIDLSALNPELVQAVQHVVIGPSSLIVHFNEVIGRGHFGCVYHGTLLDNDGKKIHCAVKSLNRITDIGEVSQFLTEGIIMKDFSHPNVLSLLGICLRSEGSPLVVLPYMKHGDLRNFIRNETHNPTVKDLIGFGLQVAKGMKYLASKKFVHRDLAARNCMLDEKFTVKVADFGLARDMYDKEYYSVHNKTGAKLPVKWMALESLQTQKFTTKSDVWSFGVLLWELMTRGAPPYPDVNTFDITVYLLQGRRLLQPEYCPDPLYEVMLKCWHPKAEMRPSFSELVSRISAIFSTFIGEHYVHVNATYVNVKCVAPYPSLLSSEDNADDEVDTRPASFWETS
Description: MET cell mechanistic assay (MKN45), phosphorylated MET levels. Type of assay: cell-based. The settings on record: MKN45 cell line, four hours incubation, at least duplicate experiments, read-out: MET mech IC50. As for the experimental part: The cellular activity of the compounds of the present invention against MET may be determined by the following procedure. MKN45 cells were plated in Falcon 3072 96-well plates in growth media (RPMI, 10% FBS, 1% L-glutamine) at a density of 5000 cells/well and incubated at 37° C., 5% CO2 overnight. The following day, one-tenth volume of a 10× concentration of compounds was added to the wells in a 6-point dilution series. The dilutions series was composed of an initial […] in DMSO, followed by a […] in growth media, for a final DMSO concentration on cells of 0.5%. Control wells were treated with 0.5% DMSO. The typical range of dilution was 10 μM to 3 nM. Once compound was added to the cells, plates were incubated for four hours at 37° C., 5% CO2. Plates were then washed in PBS, and lysed in triton-based lysis buffer. Lysates were transferred to a precoated capture plate made by Biosource (Cat # KHO0281). The phosphorylated MET levels were measured by incubating with a rabbit polyclonal antibody against phosphorylated MET ([pYpYpY1230/1234/1235]) followed by an anti-rabbit antibody conjugated to HRP. Signal was measured on a Wallac Victor plate reader at 450 nm. The DMSO signal of the control wells was defined as 100% and the percent of inhibition of phosphorylated MET was expressed as percent of control. IC50 values were determined from the percent of control data using a standard four-parameter model.
The IC50 values of exemplary compounds of the present invention determined in a MET cell mechanistic assay using the MKN45 cell line according to the procedures described herein in at least duplicate experiments are abbreviated as follows and are shown in Table 2: A, IC50≦0.1 μM; B, 0.1 μM<IC50≦0.5 μM; C, 0.5 μM<IC50≦2 μM; D, IC50>2 μM; ND, not determined. The Example # of Table 2 corresponds to the compound example number as illustrated in the Experimental section above.

Broadly, the IC50 is the concentration that gives 50% inhibition. In the case of `CC(c1c(Cl)ccc(F)c1Cl)c1c[nH]c2ncc(-c3cnn(C4CCN(C=O)CC4)c3)nc12` (stereo not drawn) [Example 3, 4-(4-{7-[1-(2,6-dichloro-3-fluorophenyl)ethyl]-5H-pyrrolo[2,3-b]pyrazin-2-yl}-1H-pyrazol-1-yl)piperidine-1-carbaldehyde], the figures for the IC50 in assay [1] and in assay [2] were 500 to 2000 nM and 100 to 500 nM, respectively.
In the case of `CC(c1c(Cl)ccc(F)c1Cl)c1c[nH]c2ncc(-c3cnn(C4CCNCC4)c3)nc12` (stereo not drawn) [Example 2, 7-[1-(2,6-dichloro-3-fluorophenyl)ethyl]-2-(1-piperidin-4-yl-1H-pyrazol-4-yl)-5H-pyrrolo[2,3-b]pyrazine], the IC50 in assay [1] and in assay [2] was 100 to 500 nM each time.
On to `CC(c1c(Cl)ccc(F)c1Cl)c1c[nH]c2nnc(-c3cnn(C4CCNCC4)c3)cc12` (stereo not drawn) [Example 16, 5-[1-(2,6-Dichloro-3-fluorophenyl)ethyl]-3-[1-(piperidin-4-yl)-1H-pyrazol-4-yl]-7H-pyrrolo[2,3-c]pyridazine], for which the IC50 in assay [1] and in assay [2] was > 2000 nM throughout.
